ChEMBL document CHEMBL4385653, “Design, synthesis, biological evaluation of benzoyl amide derivatives containing nitrogen heterocyclic ring as potential VEGFR-2 inhibitors” (Bioorg Med Chem, 2019)

Assays:
[1] = target: Vascular endothelial growth factor receptor 2 (Homo sapiens, UniProt P35968); experiment: Inhibition of VEGFR2 (unknown origin) incubated for 30 mins by enzyme immunoassay
[2] = target: Epidermal growth factor receptor (Homo sapiens, UniProt P00533); experiment: Inhibition of EGFR (unknown origin) incubated for 30 mins by enzyme immunoassay
HeLa = experiment: Antiproliferative activity against human HeLa cells assessed as inhibition of cell proliferation incubated for 48 hrs by MTT assay; format: functional, cell-based
MCF7 [3] = experiment: Antiproliferative activity against human MCF7 cells assessed as inhibition of cell proliferation incubated for 48 hrs by MTT assay; format: functional, cell-based; settings: MCF7, 48 h
[4] = Inhibition of PDGFR (unknown origin) incubated for 30 mins by enzyme immunoassay; design: species or system Homo sapiens
HepG2 = experiment: Antiproliferative activity against human HepG2 cells assessed as inhibition of cell proliferation incubated for 48 hrs by MTT assay; format: functional, cell-based; settings: HepG2, 48 h
A549 = experiment: Antiproliferative activity against human A549 cells assessed as inhibition of cell proliferation incubated for 48 hrs by MTT assay; format: functional, cell-based; settings: A549, 48 h
[5] = target: Fibroblast growth factor receptor 1 (Homo sapiens, UniProt P11362); experiment: Inhibition of bFGFR (unknown origin) incubated for 30 mins by enzyme immunoassay
[6] = Cytotoxicity in HEK293T cells assessed as reduction in cell viability incubated for 48 hrs by MTT assay; format: cell-based, HEK-293T; settings: human
MCF7 [7] = experiment: Induction of apoptosis in human MCF7 cells incubated for 24 hrs by Annexin V-FITC/PI double staining based flow cytometry analysis; format: functional, cell-based

Sequence of Fibroblast growth factor receptor 1 (P11362 whole entry): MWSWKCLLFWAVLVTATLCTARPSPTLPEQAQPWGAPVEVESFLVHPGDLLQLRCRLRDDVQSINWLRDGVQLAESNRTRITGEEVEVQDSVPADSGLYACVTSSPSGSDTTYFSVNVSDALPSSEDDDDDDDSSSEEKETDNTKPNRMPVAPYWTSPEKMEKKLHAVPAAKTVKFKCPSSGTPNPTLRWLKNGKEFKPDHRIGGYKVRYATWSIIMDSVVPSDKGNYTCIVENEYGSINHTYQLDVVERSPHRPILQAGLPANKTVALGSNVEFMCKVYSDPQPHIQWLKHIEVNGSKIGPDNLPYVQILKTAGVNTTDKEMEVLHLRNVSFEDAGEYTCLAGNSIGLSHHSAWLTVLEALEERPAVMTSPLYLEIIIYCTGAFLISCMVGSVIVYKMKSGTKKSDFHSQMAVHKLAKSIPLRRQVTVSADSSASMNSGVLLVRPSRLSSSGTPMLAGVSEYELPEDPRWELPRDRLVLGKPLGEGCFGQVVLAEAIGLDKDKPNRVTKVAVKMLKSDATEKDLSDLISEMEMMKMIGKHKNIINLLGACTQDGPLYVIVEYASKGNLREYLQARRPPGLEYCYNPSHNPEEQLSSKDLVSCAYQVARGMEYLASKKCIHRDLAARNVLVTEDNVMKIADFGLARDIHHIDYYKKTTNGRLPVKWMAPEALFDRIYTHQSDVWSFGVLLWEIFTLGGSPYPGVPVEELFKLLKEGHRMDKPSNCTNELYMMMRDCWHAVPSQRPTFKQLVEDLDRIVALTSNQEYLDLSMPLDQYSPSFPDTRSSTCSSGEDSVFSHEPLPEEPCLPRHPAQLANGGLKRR
Sequence of Epidermal growth factor receptor (P00533 whole entry): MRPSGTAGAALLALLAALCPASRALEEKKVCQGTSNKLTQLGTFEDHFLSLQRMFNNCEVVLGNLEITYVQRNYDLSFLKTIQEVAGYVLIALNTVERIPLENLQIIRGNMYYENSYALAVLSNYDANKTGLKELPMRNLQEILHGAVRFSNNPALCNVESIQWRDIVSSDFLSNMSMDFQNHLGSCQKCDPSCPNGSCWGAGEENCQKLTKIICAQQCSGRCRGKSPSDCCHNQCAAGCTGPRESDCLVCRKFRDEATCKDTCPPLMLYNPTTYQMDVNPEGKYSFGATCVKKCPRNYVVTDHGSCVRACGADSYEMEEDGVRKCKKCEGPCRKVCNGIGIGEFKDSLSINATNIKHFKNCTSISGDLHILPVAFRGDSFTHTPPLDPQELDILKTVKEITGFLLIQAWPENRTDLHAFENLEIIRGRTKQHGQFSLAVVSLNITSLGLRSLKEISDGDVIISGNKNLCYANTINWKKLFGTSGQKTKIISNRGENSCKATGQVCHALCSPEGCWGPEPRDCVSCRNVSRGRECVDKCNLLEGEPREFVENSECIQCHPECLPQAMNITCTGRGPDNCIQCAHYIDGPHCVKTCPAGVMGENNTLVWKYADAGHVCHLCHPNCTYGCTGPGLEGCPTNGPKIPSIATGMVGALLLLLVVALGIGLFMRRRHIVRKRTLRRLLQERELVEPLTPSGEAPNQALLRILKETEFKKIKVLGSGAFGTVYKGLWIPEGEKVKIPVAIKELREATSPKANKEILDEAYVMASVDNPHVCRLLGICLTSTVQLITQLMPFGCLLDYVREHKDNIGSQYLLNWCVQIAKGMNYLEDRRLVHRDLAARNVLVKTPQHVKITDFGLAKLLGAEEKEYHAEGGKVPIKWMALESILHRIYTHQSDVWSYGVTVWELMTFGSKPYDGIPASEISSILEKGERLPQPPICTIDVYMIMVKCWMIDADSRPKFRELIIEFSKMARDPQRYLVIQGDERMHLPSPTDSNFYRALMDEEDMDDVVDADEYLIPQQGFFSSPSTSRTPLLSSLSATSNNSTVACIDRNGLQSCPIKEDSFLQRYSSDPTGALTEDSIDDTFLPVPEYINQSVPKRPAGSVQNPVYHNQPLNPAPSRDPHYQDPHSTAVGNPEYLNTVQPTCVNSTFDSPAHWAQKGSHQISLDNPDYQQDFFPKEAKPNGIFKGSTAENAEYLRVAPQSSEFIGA
Sequence of Vascular endothelial growth factor receptor 2 (P35968 whole entry): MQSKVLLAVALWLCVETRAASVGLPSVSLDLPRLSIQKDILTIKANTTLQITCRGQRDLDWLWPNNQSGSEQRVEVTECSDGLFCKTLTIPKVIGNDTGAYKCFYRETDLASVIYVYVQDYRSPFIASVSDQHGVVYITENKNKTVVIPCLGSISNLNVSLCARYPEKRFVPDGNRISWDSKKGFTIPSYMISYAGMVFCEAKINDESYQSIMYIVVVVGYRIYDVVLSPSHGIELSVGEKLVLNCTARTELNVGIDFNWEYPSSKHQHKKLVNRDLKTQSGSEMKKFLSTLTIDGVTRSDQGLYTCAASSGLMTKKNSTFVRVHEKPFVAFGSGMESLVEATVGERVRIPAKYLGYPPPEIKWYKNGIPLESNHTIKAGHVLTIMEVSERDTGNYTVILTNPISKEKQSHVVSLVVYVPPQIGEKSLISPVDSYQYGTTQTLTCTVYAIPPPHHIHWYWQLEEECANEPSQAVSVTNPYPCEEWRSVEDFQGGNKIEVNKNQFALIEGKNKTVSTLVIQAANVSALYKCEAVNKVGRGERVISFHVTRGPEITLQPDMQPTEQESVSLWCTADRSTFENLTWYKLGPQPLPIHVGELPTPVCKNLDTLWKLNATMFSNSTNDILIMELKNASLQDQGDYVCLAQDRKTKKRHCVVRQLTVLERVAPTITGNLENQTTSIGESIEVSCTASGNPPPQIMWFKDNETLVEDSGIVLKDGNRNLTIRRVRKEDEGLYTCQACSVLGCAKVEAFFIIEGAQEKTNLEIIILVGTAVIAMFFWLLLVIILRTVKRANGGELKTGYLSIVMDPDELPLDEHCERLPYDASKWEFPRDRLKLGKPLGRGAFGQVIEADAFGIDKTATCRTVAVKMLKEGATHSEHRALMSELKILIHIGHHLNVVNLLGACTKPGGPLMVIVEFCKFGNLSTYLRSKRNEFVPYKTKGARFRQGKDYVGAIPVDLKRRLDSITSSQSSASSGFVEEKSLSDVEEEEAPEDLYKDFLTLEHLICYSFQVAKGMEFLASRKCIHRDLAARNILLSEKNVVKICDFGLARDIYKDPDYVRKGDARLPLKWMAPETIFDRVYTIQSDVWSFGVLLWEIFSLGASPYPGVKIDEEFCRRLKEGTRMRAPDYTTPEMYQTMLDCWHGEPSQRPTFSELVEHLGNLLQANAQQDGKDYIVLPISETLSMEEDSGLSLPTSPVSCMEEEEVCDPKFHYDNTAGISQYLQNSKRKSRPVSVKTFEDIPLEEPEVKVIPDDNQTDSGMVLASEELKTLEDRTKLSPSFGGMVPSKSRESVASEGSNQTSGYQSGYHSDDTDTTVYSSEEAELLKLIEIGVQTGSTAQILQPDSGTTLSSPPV

SMILES | IC50 [1] [µM] | IC50 [2] [µM] | IC50 (HeLa) [µM] | IC50 (MCF7 [3]) [µM] | IC50 [4] [µM] | IC50 (HepG2) [µM] | IC50 (A549) [µM] | IC50 [5] [µM] | CC50 at 48 h [6] [µM] | Activity (MCF7 [7])
COc1cccc(-n2cc(NC(=O)c3cccc(NS(=O)(=O)c4ccccc4)c3)cn2)c1 | 9.22 | 22.9 | 26.2 | 16.7 | 27.8 | 25 | 81.1 | 33.5 | – | –
COc1ccc(-n2cc(NC(=O)c3ccc(NS(=O)(=O)c4ccccc4)cc3)cn2)cc1 | 14.5 | 26.1 | 47.2 | 25.6 | 36.8 | 57.3 | 85.8 | 45.3 | – | –
Cn1cc(NC(=O)c2cccc(NS(=O)(=O)c3ccccc3)c2)cn1 | 20.4 | 34.3 | 78.5 | 41.2 | 41.6 | 85.3 | > 100 | 57.1 | – | –
Cc1ccc(-n2cc(NC(=O)c3cccc(NS(=O)(=O)c4ccccc4)c3)cn2)cc1 | 0.58 | 9.57 | 3.12 | 1.69 | 15.7 | 6.05 | 18.9 | 16.2 | 93.8 | –
O=C(Nc1cnn(-c2ccccc2)c1)c1ccc(NS(=O)(=O)c2ccc(Cl)cc2)cc1 | 3.71 | – | 18.4 | 5.25 | 19.4 | 15.2 | 33.9 | 21.6 | 125 | –
COc1ccc(-n2cc(NC(=O)c3ccc(NS(=O)(=O)c4ccc(Cl)cc4)cc3)cn2)cc1 | 7.16 | 16.2 | 25.2 | 15.6 | 26.5 | 19.1 | 61 | 26.5 | – | –
Cn1cc(NC(=O)c2ccc(NS(=O)(=O)c3ccccc3)cc2)cn1 | 25.2 | 36.8 | 92.8 | 58.7 | 42.6 | > 100 | > 100 | 62.1 | – | –
Cc1ccc(-n2cc(NC(=O)c3ccc(NS(=O)(=O)c4ccc(Cl)cc4)cc3)cn2)cc1 | 2.88 | 12.4 | 8.01 | 3.99 | 15.8 | 9.72 | 22 | 16.2 | 138 | –
COc1cc2/c(=N/c3ccc(Br)cc3F)nc[nH]c2cc1OCC1CCN(C)CC1 [VANDETANIB] | – | – | 6.57 | 1.4 | 1.33 | 2.46 | 18.2 | – | – | Dose-dependent effect
COc1ccc(-n2cc(NC(=O)c3cccc(NS(=O)(=O)c4ccc(Cl)cc4)c3)cn2)cc1 | 5.15 | 15.3 | 19.7 | 8.72 | 21.7 | 15.2 | 29.7 | 25.5 | 89.8 | –
